Measurements as given in US5945440A, “Indolocarbazole imides and the use thereof” (priority 1992, dated 1999).
One block for each molecule: values may come before it.

Columns and labels:
[1] = target: T1, MLC kinase (myosin light-chain kinase) (Gallus gallus, UniProt P11799); test: inhibition of MLC kinase, in vitro enzyme test (32P phosphate incorporation); format: biochemical, chicken (stomach); settings: for ratio of IC50 C-kinase/IC50 MLC-kinase: selectivity factor calculated from the IC50 values; for IC50: 1 nM MLC kinase, 250 μM ATP, pH 7.2, 20 minutes at 30° C., read-out: inhibition of the protein kinases, MLC-kinase IC50
T1 construct: MLC kinase was purified from chicken stomach; from tissue; host or cells: chicken stomach (gizzard smooth muscle)

protein kinase C = test: inhibition of protein kinase C, enzyme test; format: biochemical; settings: for IC50: read-out: inhibition of the protein kinases, C-kinase IC50
Procedure: In order to ascertain whether it is a question of a selective inhibition of MLC kinase, the compounds were also investigated in other enzyme tests for protein kinase, including tests for protein kinase C. The results from the PKC test are also given in the following Table I. Furthermore, the Table contains selectivity factors which were calculated by the determination of the ratios of the IC50 values.

human tumour cells = test: colony test, human tumour cells in soft agar (tumour types in general); format: cell-based; settings: certain tumour types
Procedure: (§1) For this test, human tumour cells are kept as solid tumour by passage on the nude mouse. For the test, an individual cell suspension is prepared and the cells then plated out in dishes containing soft agar. Under these conditions, the tumour cells multiply and form colonies.

[2] = literature / other filings; cited from earlier work
HIV [3] = test: phorbol ester-induced HIV reactivation, viral protein p24 by ELISA; format: cell-based; settings: Human immunodeficiency virus 1; U1 cells, PMA stimulation; average value ± SD; n = 3; read-out: inhibition of the HIV production IC50, p24 expression
Procedure: (§2) In the case of the establishment of this hypothesis, use was made of the promonocytic cell line U1.
(§3) Without stimulation, no formation of HIV can be measured in these cells but, after 15 minutes stimulation with the phorbol ester PMA, it results in a massive production of HIV.
(§4) Some of the PKC inhibitors according to the present invention were investigated in this model. As a measure for the HIV production, either with the help of an ELISA test there was determined the viral protein p24 or with the help of an indicator cell, there was measured the HIV-induced formation of syncytia (giant cells produced by the fusion of individual cells).

HIV [4] = test: phorbol ester-induced HIV reactivation, HIV-induced syncytia formation with indicator cell; format: cell-based; settings: Human immunodeficiency virus 1; U1 cells, PMA stimulation; average value; n = 2; read-out: inhibition of the HIV production IC50, syncytia formation
Procedure: as §2, §3, §4

HIV [5] = test: HIV production in PMA-stimulated promonocytic U1 cells (both methods); format: cell-based; settings: both test methods
Procedure: as §2, §3, §4

[6] = tested on: promonocytic cell line U1; test: control experiments for cytotoxic action in the HIV model; format: cell-based
[7] = tested on: human tumour cells, colon; test: colony formation of human tumour cells: colon; format: cell-based
Procedure: as §1

[8] = tested on: human tumour cells, colorectal 1; test: colony formation of human tumour cells: colorectal 1; format: cell-based
Procedure: as §1

[9] = tested on: human tumour cells, gastric 1; test: colony formation of human tumour cells: gastric 1; format: cell-based
Procedure: as §1

[10] = tested on: human tumour cells, gastric 2; test: colony formation of human tumour cells: gastric 2; format: cell-based
Procedure: as §1

[11] = tested on: human tumour cells, lung (large cell); test: colony formation of human tumour cells: lung (large cell); format: cell-based
Procedure: as §1

[12] = tested on: human tumour cells, lung (small cell 1); test: colony formation of human tumour cells: lung (small cell 1); format: cell-based
Procedure: as §1

[13] = tested on: human tumour cells, melanoma 1; test: colony formation of human tumour cells: melanoma 1; format: cell-based
Procedure: as §1

[14] = tested on: human tumour cells, melanoma 2; test: colony formation of human tumour cells: melanoma 2; format: cell-based
Procedure: as §1

[15] = tested on: human tumour cells, melanoma 3; test: colony formation of human tumour cells: melanoma 3; format: cell-based
Procedure: as §1

[16] = tested on: human tumour cells, ovarian 1; test: colony formation of human tumour cells: ovarian 1; format: cell-based
Procedure: as §1

[17] = tested on: human tumour cells, ovarian 2; test: colony formation of human tumour cells: ovarian 2; format: cell-based
Procedure: as §1

[18] = tested on: human tumour cells, ovarian 3; test: colony formation of human tumour cells: ovarian 3; format: cell-based
Procedure: as §1

[19] = tested on: human tumour cells, pancreas 1; test: colony formation of human tumour cells: pancreas 1; format: cell-based
Procedure: as §1

[20] = tested on: human tumour cells, prostata 1; test: colony formation of human tumour cells: prostata 1; format: cell-based
Procedure: as §1

[21] = tested on: narcotised, spontaneously hypertensive rat (SHR); test: anti-hypertensive action in narcotised spontaneously hypertensive rats, i.v.; format: in vivo; settings: for reduction of the average arterial blood pressure / reduction of the heart frequency: 60 minutes after administration, average ± SD
Procedure: As test model, there was used the narcotised, spontaneously hypertensive rat (SHR). After intravenous administration of the inhibitor of MLC kinase, in each case 60 minutes after the administration of the compound, there were found the reductions of the average arterial blood pressure set out in the following Table 2.

T1 sequence (P11799 935-1906): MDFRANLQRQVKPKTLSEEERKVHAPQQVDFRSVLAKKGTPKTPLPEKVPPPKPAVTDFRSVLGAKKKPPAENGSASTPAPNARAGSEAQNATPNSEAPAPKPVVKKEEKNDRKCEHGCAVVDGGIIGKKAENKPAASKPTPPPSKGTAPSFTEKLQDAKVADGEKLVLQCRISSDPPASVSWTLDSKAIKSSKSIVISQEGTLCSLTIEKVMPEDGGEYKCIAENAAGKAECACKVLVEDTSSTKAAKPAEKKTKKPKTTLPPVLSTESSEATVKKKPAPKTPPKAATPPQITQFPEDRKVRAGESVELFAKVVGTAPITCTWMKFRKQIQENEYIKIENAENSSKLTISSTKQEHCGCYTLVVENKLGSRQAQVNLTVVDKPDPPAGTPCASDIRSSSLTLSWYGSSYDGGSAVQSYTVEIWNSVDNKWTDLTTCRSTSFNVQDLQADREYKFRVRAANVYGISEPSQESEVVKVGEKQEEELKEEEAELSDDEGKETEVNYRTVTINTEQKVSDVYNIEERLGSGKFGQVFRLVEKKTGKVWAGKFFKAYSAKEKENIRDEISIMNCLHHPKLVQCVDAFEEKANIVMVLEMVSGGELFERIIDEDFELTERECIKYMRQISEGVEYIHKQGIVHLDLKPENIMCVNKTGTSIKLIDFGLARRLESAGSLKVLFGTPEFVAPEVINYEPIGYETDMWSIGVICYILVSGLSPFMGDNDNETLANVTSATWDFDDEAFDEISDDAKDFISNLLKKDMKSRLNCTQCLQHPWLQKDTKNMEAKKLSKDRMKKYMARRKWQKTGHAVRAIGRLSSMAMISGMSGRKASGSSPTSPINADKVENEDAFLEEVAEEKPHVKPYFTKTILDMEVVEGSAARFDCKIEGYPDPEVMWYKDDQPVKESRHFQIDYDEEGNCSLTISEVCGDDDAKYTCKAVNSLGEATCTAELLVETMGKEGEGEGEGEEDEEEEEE

SMILES: O=C1NC(=O)c2c1c1c3cccc(O)c3[nH]c1c1[nH]c3c(O)cccc3c21 [BE-13193C]
anti-tumour action, in words [2]: antitumour action

SMILES: NC(=O)CCn1c2ccccc2c2c3c(c4c5ccccc5[nH]c4c21)C(=O)NC3=O [Example 5, 12-(2-Carbamoylethyl)-6,7,12,13-tetrahydro-5,7-dioxo-5H-indolo[2,3-a]pyrrolo[3,4-c]carbazole]
IC50 [1]: 3.7 nM
MLC kinase inhibition, in words ([1]; potency and selectivity vs protein kinase C): potent and selective inhibitors of MLC kinase
ratio of IC50 C-kinase/IC50 MLC-kinase [1]: 24
IC50 (protein kinase C): 87 nM
reduction of the average arterial blood pressure ([21]; 1 mg/kg i.v.): 15 ± 5%
reduction of the heart frequency ([21]; 1 mg/kg i.v.): 3 ± 3%
reduction of the average arterial blood pressure ([21]; 3 mg/kg i.v.): 23 ± 3%
reduction of the heart frequency ([21]; 3 mg/kg i.v.): 7 ± 4%
reduction of the average arterial blood pressure ([21]; 10 mg/kg i.v.): 40 ± 8%
reduction of the heart frequency ([21]; 10 mg/kg i.v.): 4 ± 3%
anti-hypertensive action, in words ([21]; i.v.): dosage-dependent anti-hypertensive action could be demonstrated
influencing of the heart frequency, in words ([21]; i.v.): scarcely observable

More lines, main results first:

ratio of IC50 C-kinase/IC50 MLC-kinase [1]: 0.2
IC50 (protein kinase C): 21 nM
SMILES: CN(C)CC(O)Cn1c2ccccc2c2c3c(c4c5ccccc5n(C)c4c21)C(=O)NC3=O (racemic) [Example 10, (±)-12-(3-Dimethylamino-2-hydroxy-1-propyl)-6,7,12,13-tetrahydro-13-methyl-5,7-dioxo-5H-indolo[2,3-a]pyrrolo-[3,4-c]carbazole]
inhibition of tumour cell growth, in words (human tumour cells): the growth of the tumour cells can be inhibited depending upon the concentration

IC50 [1]: 200 nM
ratio of IC50 C-kinase/IC50 MLC-kinase [1]: 0.008
IC50 (protein kinase C): 1.5 nM
IC50 (HIV [3]): 118 ± 98 nM
IC50 (HIV [4]): 28 nM
SMILES: COc1ccc2c(c1)c1c3c(c4c5ccccc5n(C)c4c1n2CCC#N)C(=O)NC3=O [Example 1, 13-(2-Cyanoethyl)-6,7,12,13-tetrahydro-3-methoxy-12-methyl-5,7-dioxo-5H-indolo[2,3-a]pyrrolo[3,4-c]-carbazole]
protein kinase C inhibition, in words (protein kinase C; potency and selectivity vs MLC kinase): potent and selective protein kinase C inhibitor
anti-HIV action, in words (HIV [5]): an anti-HIV action could be demonstrated
cytotoxic action as cause of the anti-HIV action, in words [6]: the anti-HIV action did not come about due to a cytotoxic action

IC50 [1]: 6.1 nM
ratio of IC50 C-kinase/IC50 MLC-kinase [1]: 2.3
IC50 (protein kinase C): 14 nM
IC50 [7]: 1700 nM
IC50 [8]: 6000 nM
IC50 [9]: 1200 nM
IC50 [10]: < 100 nM
IC50 [11]: < 100 nM
IC50 [12]: < 100 nM
IC50 [13]: 120 nM
IC50 [14]: < 100 nM
IC50 [15]: 210 nM
IC50 [16]: 200 nM
IC50 [17]: 2600 nM
IC50 [18]: < 100 nM
IC50 [19]: 1500 nM
IC50 [20]: 200 nM
IC50 (HIV [3]): 36 ± 15 nM
IC50 (HIV [4]): 29 nM
SMILES: CN(C)CCCn1c2ccc(O)cc2c2c3c(c4c5cc(O)ccc5[nH]c4c21)C(=O)NC3=O [Example 2c]
inhibition of tumour cell growth, in words (human tumour cells): the growth of the tumour cells can be inhibited depending upon the concentration
inhibition at 10 µM ([7]; 10^-5 M): 94%
inhibition at 1 µM ([7]; 10^-6 M): 37%
inhibition at 0.1 µM ([7]; 10^-7 M): 8%
inhibition at 10 µM ([8]; 10^-5 M): 62%
inhibition at 1 µM ([8]; 10^-6 M): 8%
inhibition at 0.1 µM ([8]; 10^-7 M): 0%
inhibition at 10 µM ([9]; 10^-5 M): 99%
inhibition at 1 µM ([9]; 10^-6 M): 47%
inhibition at 0.1 µM ([9]; 10^-7 M): 29%
inhibition at 10 µM ([10]; 10^-5 M): 77%
inhibition at 1 µM ([10]; 10^-6 M): 66%
inhibition at 0.1 µM ([10]; 10^-7 M): 65%
inhibition at 10 µM ([11]; 10^-5 M): 100%
inhibition at 1 µM ([11]; 10^-6 M): 100%
inhibition at 0.1 µM ([11]; 10^-7 M): 97%
inhibition at 10 µM ([12]; 10^-5 M): 97%
inhibition at 1 µM ([12]; 10^-6 M): 97%
inhibition at 0.1 µM ([12]; 10^-7 M): 82%
inhibition at 10 µM ([13]; 10^-5 M): 89%
inhibition at 1 µM ([13]; 10^-6 M): 81%
inhibition at 0.1 µM ([13]; 10^-7 M): 48%
inhibition at 10 µM ([14]; 10^-5 M): 97%
inhibition at 1 µM ([14]; 10^-6 M): 99%
inhibition at 0.1 µM ([14]; 10^-7 M): 90%
inhibition at 10 µM ([15]; 10^-5 M): 73%
inhibition at 1 µM ([15]; 10^-6 M): 76%
inhibition at 0.1 µM ([15]; 10^-7 M): 38%
inhibition at 10 µM ([16]; 10^-5 M): 96%
inhibition at 1 µM ([16]; 10^-6 M): 75%
inhibition at 0.1 µM ([16]; 10^-7 M): 40%
inhibition at 10 µM ([17]; 10^-5 M): 75%
inhibition at 1 µM ([17]; 10^-6 M): 33%
inhibition at 0.1 µM ([17]; 10^-7 M): 5%
inhibition at 10 µM ([18]; 10^-5 M): 99%
inhibition at 1 µM ([18]; 10^-6 M): 94%
inhibition at 0.1 µM ([18]; 10^-7 M): 74%
inhibition at 10 µM ([19]; 10^-5 M): 83%
inhibition at 1 µM ([19]; 10^-6 M): 44%
inhibition at 0.1 µM ([19]; 10^-7 M): 38%
inhibition at 10 µM ([20]; 10^-5 M): 98%
inhibition at 1 µM ([20]; 10^-6 M): 99%
inhibition at 0.1 µM ([20]; 10^-7 M): 29%
anti-HIV action, in words (HIV [5]): an anti-HIV action could be demonstrated
cytotoxic action as cause of the anti-HIV action, in words [6]: the anti-HIV action did not come about due to a cytotoxic action
